Assay results as given in PubChem BioAssay (NCI).
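Five compound concentrations were applied to cells in 96-well plates for 48 hours; endpoints were derived by simple linear interpolation of the resulting dose-response curve. TGI marks complete inhibition of growth.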 Where a SMILES comes first, the peptide text is derived from it. [ ]: non-standard residue; d: D form. Ac5c = NC1(C(=O)O)CCCC1

Experiments:
Experiment in all cases: NCI anticancer screen, dose series, 48 h
COLO 205 colon = system: COLO 205 colon
HCT-116 colon = system: HCT-116 colon
SF-268 CNS = system: SF-268 CNS
SF-295 CNS = system: SF-295 CNS
T-47D breast = system: T-47D breast
SK-MEL-28 melanoma = system: SK-MEL-28 melanoma
HL-60(TB) leukemia = system: HL-60(TB) leukemia
SNB-19 CNS = system: SNB-19 CNS
HT29 colon = system: HT29 colon
K-562 leukemia = system: K-562 leukemia
MDA-N = system: MDA-N
PC-3 prostate = system: PC-3 prostate
EKVX NSCLC = system: EKVX NSCLC
HCT-15 colon = system: HCT-15 colon
MDA-MB-231 breast = system: MDA-MB-231 breast
IGROV1 ovarian = system: IGROV1 ovarian
HOP-62 NSCLC = system: HOP-62 NSCLC
SNB-75 CNS = system: SNB-75 CNS
ACHN renal = system: ACHN renal
A549 NSCLC = system: A549 NSCLC
KM12 colon = system: KM12 colon
NCI-H460 lung = system: NCI-H460 lung
HS 578T breast = system: HS 578T breast
MDA-MB-435 = system: MDA-MB-435
UO-31 renal = system: UO-31 renal
MCF7 breast = system: MCF7 breast
OVCAR-8 ovarian = system: OVCAR-8 ovarian
NCI-H522 lung = system: NCI-H522 lung
M14 melanoma = system: M14 melanoma
SW-620 colon = system: SW-620 colon
786-0 renal = system: 786-0 renal
UACC-257 melanoma = system: UACC-257 melanoma
SF-539 CNS = system: SF-539 CNS
CCRF-CEM leukemia = system: CCRF-CEM leukemia
MOLT-4 leukemia = system: MOLT-4 leukemia
SR leukemia = system: SR leukemia
RPMI-8226 leukemia = system: RPMI-8226 leukemia
HCC-2998 colon = system: HCC-2998 colon
SN12C renal = system: SN12C renal
SK-MEL-5 melanoma = system: SK-MEL-5 melanoma
TK-10 renal = system: TK-10 renal
SK-OV-3 ovarian = system: SK-OV-3 ovarian
OVCAR-3 ovarian = system: OVCAR-3 ovarian
A498 renal = system: A498 renal
LOX IMVI melanoma = system: LOX IMVI melanoma
NCI-H23 lung = system: NCI-H23 lung
HOP-92 NSCLC = system: HOP-92 NSCLC
SK-MEL-2 melanoma = system: SK-MEL-2 melanoma
NCI-H226 lung = system: NCI-H226 lung
BT-549 breast = system: BT-549 breast
OVCAR-5 ovarian = system: OVCAR-5 ovarian
NCI/ADR-RES ovarian = system: NCI/ADR-RES ovarian
UACC-62 melanoma = system: UACC-62 melanoma
U251 CNS = system: U251 CNS
CAKI-1 renal = system: CAKI-1 renal
OVCAR-4 ovarian = system: OVCAR-4 ovarian
RXF 393 renal = system: RXF 393 renal
MALME-3M melanoma = system: MALME-3M melanoma
DU-145 prostate = system: DU-145 prostate

Measured: TGI

COC(=O)C1(NC(=O)C(C)NC(=O)C(CCCCN)NC(=O)C(CC(C)C)NC(C)=O)CCCC1 (stereo unspecified) (Ac-LKA[Ac5c]-OMe; configuration not given here)
> 100 µM: COLO 205 colon | HCT-116 colon | SF-268 CNS | SF-295 CNS | T-47D breast | SK-MEL-28 melanoma | HL-60(TB) leukemia | SNB-19 CNS | HT29 colon | K-562 leukemia | MDA-N | PC-3 prostate | EKVX NSCLC | HCT-15 colon | MDA-MB-231 breast | IGROV1 ovarian | HOP-62 NSCLC | SNB-75 CNS | ACHN renal | A549 NSCLC | KM12 colon | NCI-H460 lung | HS 578T breast | MDA-MB-435 | UO-31 renal | MCF7 breast | OVCAR-8 ovarian | NCI-H522 lung | M14 melanoma | SW-620 colon | 786-0 renal | UACC-257 melanoma | SF-539 CNS | CCRF-CEM leukemia | MOLT-4 leukemia | SR leukemia | RPMI-8226 leukemia | HCC-2998 colon | SN12C renal | SK-MEL-5 melanoma | TK-10 renal | SK-OV-3 ovarian

CCOC(=O)/C(C#N)=C/c1ccc(SCc2ccco2)c([N+](=O)[O-])c1
> 100 µM: COLO 205 colon | OVCAR-3 ovarian | HCT-116 colon | SF-268 CNS | SF-295 CNS | SK-MEL-28 melanoma | A498 renal | HL-60(TB) leukemia | LOX IMVI melanoma | SNB-19 CNS | NCI-H23 lung | HT29 colon | K-562 leukemia | MDA-N | PC-3 prostate | EKVX NSCLC | MDA-MB-231 breast | IGROV1 ovarian | HOP-62 NSCLC | HOP-92 NSCLC | SNB-75 CNS | SK-MEL-2 melanoma | ACHN renal | A549 NSCLC | NCI-H226 lung | KM12 colon | NCI-H460 lung | HS 578T breast | MDA-MB-435 | BT-549 breast | OVCAR-5 ovarian | NCI/ADR-RES ovarian | UACC-62 melanoma | U251 CNS | CAKI-1 renal | UO-31 renal | OVCAR-4 ovarian | MCF7 breast | OVCAR-8 ovarian | NCI-H522 lung | M14 melanoma | RXF 393 renal | MALME-3M melanoma | SW-620 colon | 786-0 renal | UACC-257 melanoma | SF-539 CNS | CCRF-CEM leukemia | DU-145 prostate | MOLT-4 leukemia | SR leukemia | RPMI-8226 leukemia | HCC-2998 colon | SN12C renal | SK-MEL-5 melanoma | SK-OV-3 ovarian

C/C(=N\NC(=O)c1ccncc1)c1cccc(F)c1
> 10 µM: COLO 205 colon | OVCAR-3 ovarian | HCT-116 colon | SF-268 CNS | SF-295 CNS | T-47D breast | SK-MEL-28 melanoma | A498 renal | HL-60(TB) leukemia | LOX IMVI melanoma | SNB-19 CNS | NCI-H23 lung | K-562 leukemia | MDA-N | PC-3 prostate | HCT-15 colon | IGROV1 ovarian | HOP-62 NSCLC | HOP-92 NSCLC | SNB-75 CNS | SK-MEL-2 melanoma | ACHN renal | A549 NSCLC | NCI-H226 lung | KM12 colon | NCI-H460 lung | OVCAR-5 ovarian | NCI/ADR-RES ovarian | U251 CNS | CAKI-1 renal | UO-31 renal | MCF7 breast | OVCAR-8 ovarian | M14 melanoma | RXF 393 renal | MALME-3M melanoma | SW-620 colon | 786-0 renal | SF-539 CNS | CCRF-CEM leukemia | MOLT-4 leukemia | SR leukemia | RPMI-8226 leukemia | HCC-2998 colon | SN12C renal | SK-MEL-5 melanoma | TK-10 renal | SK-OV-3 ovarian
